Tests used:
[1] = biological target: T1, Full length WRN protein (aa 2-1432) (Homo sapiens (Human), UniProt Q14191); assay: WRN ATPase ADP-Glo biochemical assay, Assay Format B (100 μM ATP); details: 0.25 nM WRN, 100 nM C6.18 ssDNA, 60 min preincubation, read-out: ATPase ADPGlo AC50 (uM)- Assay Format B
HT29 cells = assay: HT29 (MSS) 7 day viability, CellTiter Glo; type: cell-based; details: Homo sapiens, HT-29, 168 h, 7 days, read-out: HT29 (MSS) Viability 7 Day CTGAbs AC50
How it was run: (§1)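 10 mM DMSO stocks serially diluted 3-fold, 10 steps; cells added (HCT116 50/well, HT29 500/well); 7 d, 37 °C, 5% CO2; CellTiter Glo 20 min RT; luminescence.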

HCT116 cells = assay: HCT116 (MSI) 7 day viability, CellTiter Glo; type: cell-based; details: Homo sapiens, HCT-116, 168 h, 7 days, read-out: HCT116 (MSI) Viability 7 Day Abs AC50
How it was run: as §1

[2] = biological target: T1, Full length WRN protein (aa 2-1432); assay: WRN ATPase ADP-Glo biochemical assay, Assay Format A (10 μM ATP); details: 0.25 nM WRN, 100 nM C6.18 ssDNA, 30 min preincubation, read-out: ATPase ADPGlo AC50 (uM)- Assay Format A
How it was run: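 ADP-Glo luminescence measured hydrolysis of ATP by purified, baculovirus-expressed N-terminally tagged full-length WRN. Enzyme (0.5 nM) was preincubated 30 min with compound, then 200 nM ssDNA C6.18 plus 20 μM ATP were added (pre-mix levels) for 30 min at RT. IC50s come from four-parameter fits, geometric mean of at least two trials.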

T1 sequence (Q14191 2-1432): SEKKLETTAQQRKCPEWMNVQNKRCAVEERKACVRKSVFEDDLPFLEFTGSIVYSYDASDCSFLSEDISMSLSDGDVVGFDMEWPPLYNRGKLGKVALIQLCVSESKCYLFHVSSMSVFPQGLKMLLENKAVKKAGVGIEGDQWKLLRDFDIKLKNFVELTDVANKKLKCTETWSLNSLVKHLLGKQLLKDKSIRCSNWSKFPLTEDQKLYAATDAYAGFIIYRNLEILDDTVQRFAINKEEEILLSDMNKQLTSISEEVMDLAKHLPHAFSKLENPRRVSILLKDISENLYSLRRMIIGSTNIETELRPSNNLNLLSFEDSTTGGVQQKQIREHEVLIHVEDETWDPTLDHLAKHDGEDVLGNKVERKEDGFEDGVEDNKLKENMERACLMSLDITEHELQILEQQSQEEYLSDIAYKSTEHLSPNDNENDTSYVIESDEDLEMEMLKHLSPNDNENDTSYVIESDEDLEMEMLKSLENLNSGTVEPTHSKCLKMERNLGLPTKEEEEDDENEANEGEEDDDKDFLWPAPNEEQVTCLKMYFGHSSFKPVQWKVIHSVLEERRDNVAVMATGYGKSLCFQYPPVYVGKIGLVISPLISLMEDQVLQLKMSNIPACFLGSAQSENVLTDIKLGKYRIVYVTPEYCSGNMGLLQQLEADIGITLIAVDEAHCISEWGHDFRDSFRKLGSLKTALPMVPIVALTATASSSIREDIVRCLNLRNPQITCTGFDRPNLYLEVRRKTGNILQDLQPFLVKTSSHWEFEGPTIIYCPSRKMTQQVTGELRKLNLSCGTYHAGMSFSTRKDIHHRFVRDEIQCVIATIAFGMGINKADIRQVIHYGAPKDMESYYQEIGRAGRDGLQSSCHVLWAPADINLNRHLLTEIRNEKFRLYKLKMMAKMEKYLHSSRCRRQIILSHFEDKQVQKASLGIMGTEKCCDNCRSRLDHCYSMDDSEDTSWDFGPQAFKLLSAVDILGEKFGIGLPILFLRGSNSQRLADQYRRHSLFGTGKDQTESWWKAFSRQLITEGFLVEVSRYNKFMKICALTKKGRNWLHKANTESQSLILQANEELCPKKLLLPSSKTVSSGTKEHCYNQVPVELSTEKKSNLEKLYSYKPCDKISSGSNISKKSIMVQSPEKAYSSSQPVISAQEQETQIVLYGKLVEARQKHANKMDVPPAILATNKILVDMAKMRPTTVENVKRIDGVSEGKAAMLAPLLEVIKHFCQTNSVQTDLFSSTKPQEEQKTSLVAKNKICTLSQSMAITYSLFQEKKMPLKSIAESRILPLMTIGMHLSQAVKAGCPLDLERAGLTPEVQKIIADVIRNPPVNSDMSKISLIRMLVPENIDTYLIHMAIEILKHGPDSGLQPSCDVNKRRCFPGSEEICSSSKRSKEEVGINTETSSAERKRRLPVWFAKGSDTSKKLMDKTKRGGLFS

C=CC(=O)N1CCc2nn(-c3ccc(C4CCC4)c(F)c3O)c3c2C(C1)N(C(=O)c1cnc(C(F)(F)F)c(O)c1)CC3 (stereo not drawn) [Compound 141, 1-(2-(4-cyclobutyl-3-fluoro-2-hydroxyphenyl)-5-(5-hydroxy-6-(trifluoromethyl)nicotinoyl)-2,3,4,5,5a,6,8,9-octahydro-7H-1,2,5,7-tetraazabenzo[cd]azulen-7-yl)prop-2-en-1-one]
AC50 [1]: 0.005 to 0.015 µM | AC50 (HT29 cells): > 3000 nM | AC50 (HCT116 cells): 1 to 100 nM | AC50 [2]: < 0.0015 µM

C=CC(=O)N1CCc2nn(-c3ccc(C4CCC4)cc3O)c3c2C(C1)N(C(=O)c1ncc(C(F)(F)F)cc1N)CC3 (stereo not drawn) [Compound 142, 1-(5-(3-amino-5-(trifluoromethyl)picolinoyl)-2-(4-cyclobutyl-2-hydroxyphenyl)-2,3,4,5,5a,6,8,9-octahydro-7H-1,2,5,7-tetraazabenzo[cd]azulen-7-yl)prop-2-en-1-one]
AC50 [1]: 0.015 to 0.055 µM | AC50 (HT29 cells): > 3000 nM | AC50 (HCT116 cells): 1 to 100 nM | AC50 [2]: < 0.0015 µM

C=CC(=O)N1CCc2nn(-c3ccc(C4CC4)cc3O)c3c2C(C1)N(C(=O)c1ccc(Br)c2[nH]c(C(F)F)nc12)CC3 (stereo not drawn) [Compound 143, 1-(5-(7-bromo-2-(difluoromethyl)-1H-benzo[d]imidazole-4-carbonyl)-2-(4-cyclopropyl-2-hydroxyphenyl)-2,3,4,5,5a,6,8,9-octahydro-7H-1,2,5,7-tetraazabenzo[cd]azulen-7-yl)prop-2-en-1-one]
AC50 [1]: 0.005 to 0.015 µM | AC50 (HT29 cells): > 3000 nM | AC50 (HCT116 cells): 1 to 100 nM | AC50 [2]: < 0.0015 µM

C=CC(=O)N1CCc2nn(-c3ccc(C4CCC4)cc3O)c3c2C(C1)N(C(=O)c1cnc(Cl)cc1N)CC3 (stereo not drawn) [Compound 144, 1-(5-(4-amino-6-chloronicotinoyl)-2-(4-cyclobutyl-2-hydroxyphenyl)-2,3,4,5,5a,6,8,9-octahydro-7H-1,2,5,7-tetraazabenzo[cd]azulen-7-yl)prop-2-en-1-one]
AC50 [1]: 0.0015 to 0.005 µM | AC50 (HT29 cells): > 3000 nM | AC50 (HCT116 cells): 1 to 100 nM | AC50 [2]: < 0.0015 µM

C=CC(=O)N1CCc2nn(-c3ccc(C4CCC4)cc3O)c3c2C(C1)N(C(=O)c1cnc2c(C)nn(C)c2c1)CC3 (stereo not drawn) [Compound 145, 1-(2-(4-cyclobutyl-2-hydroxyphenyl)-5-(1,3-dimethyl-1H-pyrazolo[4,3-b]pyridine-6-carbonyl)-2,3,4,5,5a,6,8,9-octahydro-7H-1,2,5,7-tetraazabenzo[cd]azulen-7-yl)prop-2-en-1-one]
AC50 [1]: 0.005 to 0.015 µM | AC50 (HT29 cells): > 3000 nM | AC50 (HCT116 cells): 1 to 100 nM | AC50 [2]: < 0.0015 µM

C=CC(=O)N1CCc2nn(-c3ccc(C4CCC4)cc3O)c3c2C(C1)N(C(=O)c1ccc(C(F)F)nc1N)CC3 (stereo not drawn) [Compound 146, 1-(5-(2-amino-6-(difluoromethyl)nicotinoyl)-2-(4-cyclobutyl-2-hydroxyphenyl)-2,3,4,5,5a,6,8,9-octahydro-7H-1,2,5,7-tetraazabenzo[cd]azulen-7-yl)prop-2-en-1-one]
AC50 [1]: 0.005 to 0.015 µM | AC50 (HT29 cells): > 3000 nM | AC50 (HCT116 cells): 1 to 100 nM | AC50 [2]: < 0.0015 µM

C=CC(=O)N1CCc2nn(-c3ccc(C4CCC4)cc3O)c3c2C(C1)N(C(=O)c1ccc(Br)c2nc(CCO)[nH]c12)CC3 (stereo not drawn) [Compound 148, 1-(5-(4-bromo-2-(2-hydroxyethyl)-1H-benzo[d]imidazole-7-carbonyl)-2-(4-cyclobutyl-2-hydroxyphenyl)-2,3,4,5,5a,6,8,9-octahydro-7H-1,2,5,7-tetraazabenzo[cd]azulen-7-yl)prop-2-en-1-one]
AC50 [1]: 0.005 to 0.015 µM | AC50 (HT29 cells): > 3000 nM | AC50 (HCT116 cells): 1 to 100 nM | AC50 [2]: < 0.0015 µM

C=CC(=O)N1CCc2nn(-c3ccc(C4CCC4)cc3O)c3c2C(C1)N(C(=O)c1cnc(C(F)(F)F)cc1O)CC3 (stereo not drawn) [Compound 149, 1-(2-(4-cyclobutyl-2-hydroxyphenyl)-5-(4-hydroxy-6-(trifluoromethyl)nicotinoyl)-2,3,4,5,5a,6,8,9-octahydro-7H-1,2,5,7-tetraazabenzo[cd]azulen-7-yl)prop-2-en-1-one]
AC50 [1]: 0.005 to 0.015 µM | AC50 (HT29 cells): > 3000 nM | AC50 (HCT116 cells): 250 to 500 nM | AC50 [2]: < 0.0015 µM

C=CC(=O)N1CCc2nn(-c3ccc(C(C)C)cc3)c3c2C(C1)N(C(=O)c1cnc(C(F)(F)F)cc1N)CC3 (stereo not drawn) [Compound 150, 1-(5-(4-amino-6-(trifluoromethyl)nicotinoyl)-2-(4-isopropylphenyl)-2,3,4,5,5a,6,8,9-octahydro-7H-1,2,5,7-tetraazabenzo[cd]azulen-7-yl)prop-2-en-1-one]
AC50 [1]: 0.005 to 0.015 µM | AC50 (HT29 cells): > 3000 nM | AC50 (HCT116 cells): 1 to 100 nM | AC50 [2]: < 0.0015 µM

C=CC(=O)N1CCc2nn(-c3ccc(C45CC(C4)C5)cc3)c3c2C(C1)N(C(=O)c1ccc(C(F)(F)F)nc1N)CC3 (stereo not drawn) [Compound 152, 1-(5-(2-amino-6-(trifluoromethyl)nicotinoyl)-2-(4-(bicyclo[1.1.1]pentan-1-yl)phenyl)-2,3,4,5,5a,6,8,9-octahydro-7H-1,2,5,7-tetraazabenzo[cd]azulen-7-yl)prop-2-en-1-one]
AC50 [1]: 0.015 to 0.055 µM | AC50 (HT29 cells): > 3000 nM | AC50 (HCT116 cells): 1 to 100 nM | AC50 [2]: < 0.0015 µM

C=CC(=O)N1CCc2nn(-c3ccc(C4CCC4)cc3O)c3c2C(C1)N(C(=O)c1cc(O)c2scnc2c1)CC3 (stereo not drawn) [Compound 153, 1-(2-(4-cyclobutyl-2-hydroxyphenyl)-5-(7-hydroxybenzo[d]thiazole-5-carbonyl)-2,3,4,5,5a,6,8,9-octahydro-7H-1,2,5,7-tetraazabenzo[cd]azulen-7-yl)prop-2-en-1-one]
AC50 [1]: 0.0015 to 0.005 µM | AC50 (HT29 cells): > 3000 nM | AC50 (HCT116 cells): 1 to 100 nM | AC50 [2]: < 0.0015 µM

C=CC(=O)N1CCc2nn(-c3ccc(C4CCC4)cc3O)c3c2C(C1)N(C(=O)c1ccc(C(C)(F)F)nc1N)CC3 (stereo not drawn) [Compound 155, 1-(5-(2-amino-6-(1,1-difluoroethyl)nicotinoyl)-2-(4-cyclobutyl-2-hydroxyphenyl)-2,3,4,5,5a,6,8,9-octahydro-7H-1,2,5,7-tetraazabenzo[cd]azulen-7-yl)prop-2-en-1-one]
AC50 [1]: 0.005 to 0.015 µM | AC50 (HT29 cells): > 3000 nM | AC50 (HCT116 cells): 1 to 100 nM | AC50 [2]: < 0.0015 µM

C=CC(=O)N1CC(OC)c2nn(-c3ccc(C4CCC4)cc3)c3c2C(C1)N(C(=O)c1cnc(C(F)(F)F)c(O)c1)CC3 (stereo not drawn) [Compound 156, 1-(2-(4-cyclobutylphenyl)-5-(5-hydroxy-6-(trifluoromethyl)nicotinoyl)-9-methoxy-2,3,4,5,5a,6,8,9-octahydro-7H-1,2,5,7-tetraazabenzo[cd]azulen-7-yl)prop-2-en-1-one]
AC50 [1]: 0.005 to 0.015 µM | AC50 (HT29 cells): > 3000 nM | AC50 (HCT116 cells): 1 to 100 nM | AC50 [2]: 0.0015 to 0.005 µM

C=CC(=O)N1CCc2nn(-c3ccc(C4CCC4)cc3O)c3c2C(C1)N(C(=O)c1ccc(SC(F)(F)F)nc1)CC3 (stereo not drawn) [Compound 157, 1-(2-(4-cyclobutyl-2-hydroxyphenyl)-5-(6-((trifluoromethyl)thio)nicotinoyl)-2,3,4,5,5a,6,8,9-octahydro-7H-1,2,5,7-tetraazabenzo[cd]azulen-7-yl)prop-2-en-1-one]
AC50 [1]: 0.005 to 0.015 µM | AC50 (HT29 cells): > 3000 nM | AC50 (HCT116 cells): 1 to 100 nM | AC50 [2]: < 0.0015 µM

C=CC(=O)N1CCc2nn(-c3ccc(C4CCC4)cc3)c3c2C(C1)N(C(=O)c1ccc(Br)c2[nH]nc(N)c12)CC3 (stereo not drawn) [Compound 158, 1-(5-(3-amino-7-bromo-1H-indazole-4-carbonyl)-2-(4-cyclobutylphenyl)-2,3,4,5,5a,6,8,9-octahydro-7H-1,2,5,7-tetraazabenzo[cd]azulen-7-yl)prop-2-en-1-one]
AC50 [1]: 0.0015 to 0.005 µM | AC50 (HT29 cells): > 3000 nM | AC50 (HCT116 cells): 1 to 100 nM | AC50 [2]: < 0.0015 µM

Reference: patent publication US20250346600A1, “TRICYCLIC DERIVATIVES AND RELATED USES” (MOMA Therapeutics, Inc., priority 2023, published 2025)
